The results in this text go back to patent US10189845B2, “4,6-substituted-pyrazolo[1,5-a]pyrazines as janus kinase inhibitors” (ARRAY BIOPHARMA INC., priority 2014, dated 2019).

What all share (type): biochemical
The target in one experiment is Human Tyk2 kinase domain (Homo sapiens (Human), UniProt P29597). Briefly: Tyk2 Inhibition Assay (Example A, Omnia kinase fluorescence peptide substrate assay). To be noted: TYK2 Enzyme IC50 1 mM ATP, averaged IC50 ranges. In short, it runs like this:
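IC50 values come from a 4-parameter logistic fit of percent-of-control data, with compounds at 2% final DMSO. Reactions held 1 nM His-tag-cleaved Tyk2 (aa 886–1187), 8 μM Omnia Y12 peptide and 1 mM ATP in pH 7.4 HEPES buffer with 10 mM MgCl2, Triton X-100 and DTT. Sox fluorescence (360/485 nm) was monitored kinetically over 45 min.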

The target in a further experiment is JAK3 (Homo sapiens (Human), UniProt P52333). Briefly: JAK3 Inhibition Assay (Example D, Omnia kinase fluorescence peptide substrate assay). The gist of the method: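 Omnia Sox-peptide kinetic read (ex 360 nm, em 485 nm, every 50 s over 45 min) tracked phosphorylation of 10 μM Y7 peptide by 2 nM recombinant JAK3 at 1 mM ATP. Buffer: 25 mM HEPES pH 7.4, 10 mM MgCl2, 0.01% Triton X-100, 1 mM DTT, with 2% DMSO final.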

For a further experiment, the target named is JAK1 (Homo sapiens (Human), UniProt P23458). In words: JAK1 Inhibition Assay (Example B, Omnia kinase fluorescence peptide substrate assay). The gist of the method:
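Kinetic fluorescence read (360 nm excitation, 485 nm emission, every 50 s over 45 min) of Omnia Y12 peptide (8 μM) phosphorylation by 12.5 nM human JAK1 at 1 mM ATP. Buffer: HEPES pH 7.4, MgCl2, Triton X-100, DTT; 2% DMSO. IC50 = concentration giving 50 POC on logistic curve.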

In another experiment the target is JAK2 (Homo sapiens (Human), UniProt O60674). Briefly: JAK2 Inhibition Assay (Example C, Omnia kinase fluorescence peptide substrate assay). As to conditions: JAK2 Enzyme IC50 1 mM ATP, averaged IC50 ranges. In short, it runs like this: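 Kinetic fluorescence read of Omnia Y7 peptide (10 μM) phosphorylation, ex 360/em 485 nm every 50 s over 45 min, by 4 nM JAK2 at 1 mM ATP. Buffer 25 mM HEPES pH 7.4, 10 mM MgCl2, 0.01% Triton X-100, 1 mM DTT; final DMSO 2%. Percent-of-control values fitted by 4-parameter logistic for IC50.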

Setting [1] is: JAK1 Enzyme IC50 1 mM ATP, 1 mM ATP, averaged IC50 ranges.

SMILES strings stand for the structures. Like-named read-outs stand apart in the source and are kept apart here.

Chain of JAK1 (P23458 whole entry): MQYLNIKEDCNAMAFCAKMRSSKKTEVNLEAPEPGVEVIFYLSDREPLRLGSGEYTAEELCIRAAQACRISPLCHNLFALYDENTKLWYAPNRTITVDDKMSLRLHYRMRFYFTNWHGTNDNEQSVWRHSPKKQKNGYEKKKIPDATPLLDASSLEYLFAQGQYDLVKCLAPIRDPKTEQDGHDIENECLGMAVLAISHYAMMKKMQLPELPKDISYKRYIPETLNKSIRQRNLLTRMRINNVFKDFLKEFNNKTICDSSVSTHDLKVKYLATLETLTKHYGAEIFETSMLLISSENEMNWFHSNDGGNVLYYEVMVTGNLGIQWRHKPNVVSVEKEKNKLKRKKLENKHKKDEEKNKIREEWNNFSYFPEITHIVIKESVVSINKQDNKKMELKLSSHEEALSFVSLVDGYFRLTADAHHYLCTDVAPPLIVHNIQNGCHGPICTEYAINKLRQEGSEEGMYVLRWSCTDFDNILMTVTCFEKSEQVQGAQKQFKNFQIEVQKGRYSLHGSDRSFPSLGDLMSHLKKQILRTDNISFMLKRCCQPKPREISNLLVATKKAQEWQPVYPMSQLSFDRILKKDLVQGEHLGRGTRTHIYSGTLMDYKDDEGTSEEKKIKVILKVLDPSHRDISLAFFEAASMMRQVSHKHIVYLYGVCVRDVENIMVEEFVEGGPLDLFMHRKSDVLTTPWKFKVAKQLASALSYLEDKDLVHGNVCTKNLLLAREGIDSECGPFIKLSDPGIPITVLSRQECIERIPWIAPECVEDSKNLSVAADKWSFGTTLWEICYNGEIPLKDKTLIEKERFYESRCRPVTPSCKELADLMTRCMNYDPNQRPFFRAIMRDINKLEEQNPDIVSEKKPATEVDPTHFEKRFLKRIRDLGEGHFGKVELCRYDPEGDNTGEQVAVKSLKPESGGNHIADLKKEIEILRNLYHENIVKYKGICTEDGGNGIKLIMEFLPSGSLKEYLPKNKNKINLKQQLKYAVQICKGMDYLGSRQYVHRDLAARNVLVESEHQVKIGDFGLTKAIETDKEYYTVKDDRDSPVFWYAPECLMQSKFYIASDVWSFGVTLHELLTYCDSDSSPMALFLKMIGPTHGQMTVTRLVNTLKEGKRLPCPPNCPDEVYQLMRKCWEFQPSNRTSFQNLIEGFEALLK
Chain of JAK3 (P52333 whole entry): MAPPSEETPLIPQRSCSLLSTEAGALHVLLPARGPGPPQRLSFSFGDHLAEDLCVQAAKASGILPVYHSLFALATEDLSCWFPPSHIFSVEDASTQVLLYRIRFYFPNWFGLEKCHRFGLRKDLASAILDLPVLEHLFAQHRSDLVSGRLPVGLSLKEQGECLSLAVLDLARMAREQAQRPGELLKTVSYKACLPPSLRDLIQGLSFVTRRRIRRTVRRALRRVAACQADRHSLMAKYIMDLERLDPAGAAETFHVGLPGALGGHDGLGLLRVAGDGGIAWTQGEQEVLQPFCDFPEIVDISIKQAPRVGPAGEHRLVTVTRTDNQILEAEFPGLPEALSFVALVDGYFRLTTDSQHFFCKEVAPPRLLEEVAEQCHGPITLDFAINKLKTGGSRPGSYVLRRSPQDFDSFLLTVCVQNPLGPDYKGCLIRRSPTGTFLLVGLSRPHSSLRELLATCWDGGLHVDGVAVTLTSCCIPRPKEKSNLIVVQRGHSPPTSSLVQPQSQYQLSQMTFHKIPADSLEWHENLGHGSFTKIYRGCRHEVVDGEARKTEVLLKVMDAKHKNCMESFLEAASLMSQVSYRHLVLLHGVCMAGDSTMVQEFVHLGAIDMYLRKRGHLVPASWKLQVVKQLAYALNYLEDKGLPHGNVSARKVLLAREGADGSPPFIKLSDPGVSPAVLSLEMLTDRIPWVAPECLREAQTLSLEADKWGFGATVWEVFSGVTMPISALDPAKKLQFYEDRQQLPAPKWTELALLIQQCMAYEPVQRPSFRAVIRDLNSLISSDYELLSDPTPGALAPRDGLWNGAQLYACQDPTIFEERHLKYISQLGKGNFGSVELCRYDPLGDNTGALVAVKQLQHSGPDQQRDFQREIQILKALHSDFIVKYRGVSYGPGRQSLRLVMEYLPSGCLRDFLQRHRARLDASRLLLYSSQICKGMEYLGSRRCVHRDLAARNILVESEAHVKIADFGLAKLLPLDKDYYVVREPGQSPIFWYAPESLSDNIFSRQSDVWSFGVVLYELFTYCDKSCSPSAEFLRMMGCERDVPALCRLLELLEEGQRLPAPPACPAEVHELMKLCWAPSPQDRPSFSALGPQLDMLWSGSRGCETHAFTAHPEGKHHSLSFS
Chain of Human Tyk2 kinase domain (P29597 886-1187): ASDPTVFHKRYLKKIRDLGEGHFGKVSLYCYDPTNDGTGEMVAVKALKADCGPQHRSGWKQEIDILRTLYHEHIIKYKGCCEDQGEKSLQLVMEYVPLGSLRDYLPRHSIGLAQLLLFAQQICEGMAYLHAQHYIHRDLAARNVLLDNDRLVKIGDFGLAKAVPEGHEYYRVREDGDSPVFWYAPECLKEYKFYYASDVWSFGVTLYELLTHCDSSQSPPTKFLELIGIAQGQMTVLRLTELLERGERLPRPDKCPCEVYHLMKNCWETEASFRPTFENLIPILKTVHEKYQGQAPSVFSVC
Chain of JAK2 (O60674 whole entry): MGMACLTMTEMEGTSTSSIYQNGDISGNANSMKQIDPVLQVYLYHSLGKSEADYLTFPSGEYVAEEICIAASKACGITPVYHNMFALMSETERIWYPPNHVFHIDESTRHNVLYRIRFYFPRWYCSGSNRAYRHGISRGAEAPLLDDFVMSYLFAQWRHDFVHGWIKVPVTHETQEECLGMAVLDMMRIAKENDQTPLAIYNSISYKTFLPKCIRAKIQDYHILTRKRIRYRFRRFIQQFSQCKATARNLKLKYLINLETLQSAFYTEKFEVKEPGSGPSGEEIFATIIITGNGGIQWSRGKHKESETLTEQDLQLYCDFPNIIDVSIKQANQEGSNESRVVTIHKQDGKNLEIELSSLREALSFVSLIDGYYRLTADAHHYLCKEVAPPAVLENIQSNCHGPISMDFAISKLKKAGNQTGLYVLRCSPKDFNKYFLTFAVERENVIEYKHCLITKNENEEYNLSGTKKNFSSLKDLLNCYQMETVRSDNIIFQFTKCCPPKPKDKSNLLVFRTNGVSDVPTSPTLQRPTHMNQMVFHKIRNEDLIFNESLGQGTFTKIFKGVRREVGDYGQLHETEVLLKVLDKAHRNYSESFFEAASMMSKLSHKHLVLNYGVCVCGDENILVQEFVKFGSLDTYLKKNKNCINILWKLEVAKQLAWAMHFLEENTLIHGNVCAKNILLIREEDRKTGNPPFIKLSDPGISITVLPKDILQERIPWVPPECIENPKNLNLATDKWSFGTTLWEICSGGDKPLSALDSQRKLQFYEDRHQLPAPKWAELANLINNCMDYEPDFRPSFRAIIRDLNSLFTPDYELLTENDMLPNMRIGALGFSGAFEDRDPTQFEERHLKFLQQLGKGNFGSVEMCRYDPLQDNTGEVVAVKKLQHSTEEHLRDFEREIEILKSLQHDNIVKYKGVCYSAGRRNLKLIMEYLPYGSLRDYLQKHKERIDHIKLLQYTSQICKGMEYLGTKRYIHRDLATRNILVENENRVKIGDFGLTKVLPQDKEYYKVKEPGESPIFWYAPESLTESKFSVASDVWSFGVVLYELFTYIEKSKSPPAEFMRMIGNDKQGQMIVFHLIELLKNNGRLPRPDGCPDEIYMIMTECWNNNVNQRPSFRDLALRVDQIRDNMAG

Broadly, the IC50 is the concentration that inhibits the measured activity by half. For the compound `CCC(CC)n1cc(-c2nc(-c3cnn(C4CN(C(=O)NC)C4)c3)cn3nccc23)cn1` [Example 39, N-methyl-3-(4-(4-(1-(pentan-3-yl)-1H-pyrazol-4-yl)pyrazolo[1,5-a]pyrazin-6-yl)-1H-pyrazol-1-yl)azetidine-1-carboxamide], the half-inhibitory concentration (IC50) on Human Tyk2 kinase domain lay in the range of 10 to 100 nM; at JAK3 it was 1000 to 10000 nM; on JAK1 it was 10 to 100 nM; at JAK2, 10 to 100 nM.
On to `CCC(CC)n1cc(-c2nc(-c3cnn(C4CN(C(=O)N(C)C)C4)c3)cn3nccc23)cn1` [Example 40, N,N-dimethyl-3-(4-(4-(1-(pentan-3-yl)-1H-pyrazol-4-yl)pyrazolo[1,5-a]pyrazin-6-yl)-1H-pyrazol-1-yl)azetidine-1-carboxamide], for which the IC50 against Human Tyk2 kinase domain lay in the range of 10 to 100 nM; at JAK3 it was 1000 to 10000 nM; against JAK1 it was 100 to 1000 nM; at JAK2, 10 to 100 nM.
With `CCC(CC)n1cc(-c2nc(-c3cnn(C4CN(P(=O)(N(C)C)N(C)C)C4)c3)cn3nccc23)cn1` [Example 41, Bis-N,N-dimethyl-P-(3-(4-(4-(1-(pentan-3-yl)-1H-pyrazol-4-yl)pyrazolo[1,5-a]pyrazin-6-yl)-1H-pyrazol-1-yl)azetidin-1-yl)phosphonic amide], the concentration for half-maximal inhibition (IC50) against Human Tyk2 kinase domain lay within 10 to 100 nM; against JAK3 it was 1000 to 10000 nM; at JAK1, 100 to 1000 nM; against JAK2 it was 10 to 100 nM.
On to `CCC(CC)n1cc(-c2nc(-c3cnn(C4CN(C(=O)C(C)C)C4)c3)cn3nccc23)cn1` [Example 42, 2-methyl-1-(3-(4-(4-(1-(pentan-3-yl)-1H-pyrazol-4-yl)pyrazolo[1,5-a]pyrazin-6-yl)-1H-pyrazol-1-yl)azetidin-1-yl)propan-1-one], for which the IC50 against Human Tyk2 kinase domain fell in the range of 10 to 100 nM; against JAK3, 1000 to 10000 nM; at JAK1 it was 1000 to 10000 nM; against JAK2, 10 to 100 nM.
On to `CCC(CC)n1cc(-c2nc(-c3cnn(C4CN(C(=O)C5CC5)C4)c3)cn3nccc23)cn1` [Example 43, cyclopropyl(3-(4-(4-(1-(pentan-3-yl)-1H-pyrazol-4-yl)pyrazolo[1,5-a]pyrazin-6-yl)-1H-pyrazol-1-yl)azetidin-l-yl)methanone], for which the IC50 against Human Tyk2 kinase domain was 10 to 100 nM; at JAK3, 1000 to 10000 nM; against JAK1, 1000 to 10000 nM; on JAK2 it was 10 to 100 nM.
For `CCC(C(=O)O)n1cc(-c2nc(-c3cnn(C)c3)cn3nccc23)cn1` (stereo not drawn) [Example 44, 2-(4-(6-(1-methyl-1H-pyrazol-4-yl)pyrazolo[1,5-a]pyrazin-4-yl)-1H-pyrazol-1-yl)butanoic acid], the IC50 against Human Tyk2 kinase domain lay in the range of 10 to 100 nM; on JAK3, 1000 to 10000 nM; on JAK1 (setting [1]) it was 1000 to 10000 nM; against JAK2 it was 1000 to 10000 nM.
In the case of `CCC(CO)n1cc(-c2nc(-c3cnn(C)c3)cn3nccc23)cn1` (stereo not drawn) [Example 45, 2-(4-(6-(1-methyl-1H-pyrazol-4-yl)pyrazolo[1,5-a]pyrazin-4-yl)-1H-pyrazol-1-yl)butan-1-ol], the IC50 against Human Tyk2 kinase domain, on JAK3, at JAK1 and at JAK2 was 1000 to 10000 nM throughout.
For the compound `CCC(CCO)n1cc(-c2nc(-c3cnn(C)c3)cn3nccc23)cn1` (stereo not drawn) [Example 47, 3-(4-(6-(1-methyl-1H-pyrazol-4-yl)pyrazolo[1,5-a]pyrazin-4-yl)-1H-pyrazol-1-yl)pentan-1-ol], the IC50 on Human Tyk2 kinase domain, against JAK3, against JAK1 and against JAK2 was 1000 to 10000 nM each time.
Consider `Cn1cc(-c2cn3nccc3c(-c3cnn(C4(C)CCCC4)c3)n2)cn1` [Example 49, 6-(1-methyl-1H-pyrazol-4-yl)-4-(1-(1-methylcyclopentyl)-1H-pyrazol-4-yl)pyrazolo[1,5-a]pyrazine], for which the IC50 on Human Tyk2 kinase domain is 100 to 1000 nM; on JAK3, 1000 to 10000 nM; at JAK1, 1000 to 10000 nM; against JAK2, 1000 to 10000 nM.
With `Cn1cc(-c2cn3nccc3c(-c3cnn(C4CCCC4CO)c3)n2)cn1` (stereo not drawn) [Example 51, (2-(4-(6-(1-methyl-1H-pyrazol-4-yl)pyrazolo[1,5-a]pyrazin-4-yl)-1H-pyrazol-1-yl)cyclopentyl)methanol], the IC50 against Human Tyk2 kinase domain fell in the range of 100 to 1000 nM; against JAK3, 1000 to 10000 nM; at JAK1 it was 1000 to 10000 nM; against JAK2, 1000 to 10000 nM.
Turning to `CC1CCCCCC1n1cc(-c2nc(-c3cnn(C)c3)cn3nccc23)cn1` (stereo not drawn) [Example 52, 6-(1-methyl-1H-pyrazol-4-yl)-4-(1-(2-methylcycloheptyl)-1H-pyrazol-4-yl)pyrazolo[1,5-a]pyrazine], the IC50 at Human Tyk2 kinase domain was 10 to 100 nM; at JAK3 it was 1000 to 10000 nM; against JAK1 it was 100 to 1000 nM; against JAK2, 10 to 100 nM.
As to `Cn1cc(-c2cn3nccc3c(-c3cnn(C4CCCC4O)c3)n2)cn1` (stereo not drawn) [Example 53, 2-(4-(6-(1-methyl-1H-pyrazol-4-yl)pyrazolo[1,5-a]pyrazin-4-yl)-1H-pyrazol-1-yl)cyclopentanol], the 50% inhibitory concentration (IC50) against Human Tyk2 kinase domain lay within 100 to 1000 nM; against JAK3, 1000 to 10000 nM; against JAK1 it was 1000 to 10000 nM; on JAK2, 100 to 1000 nM.
Turning to `CCC(CC)n1cc(-c2nc(-c3cnn(C[C@@H](O)CO)c3)cn3nccc23)cn1` [Example 54, (R)-3-(4-(4-(1-(pentan-3-yl)-1H-pyrazol-4-yl)pyrazolo[1,5-a]pyrazin-6-yl)-1H-pyrazol-1-yl)propane-1,2-diol], the IC50 on Human Tyk2 kinase domain was 10 to 100 nM; on JAK3, 1000 to 10000 nM; on JAK1 (setting [1]) it was 100 to 1000 nM; at JAK2, 10 to 100 nM.
For the compound `CCC(CC)n1cc(-c2nc(-c3cnn(C[C@H](O)CO)c3)cn3nccc23)cn1` [Example 55, (S)-3-(4-(4-(1-(pentan-3-yl)-1H-pyrazol-4-yl)pyrazolor[1,5-a]pyrazin-6-yl)-1H-pyrazol-1-yl)propane-1,2-diol], the IC50 on Human Tyk2 kinase domain lay in the range of 10 to 100 nM; against JAK3, 1000 to 10000 nM; on JAK1 (setting [1]), 100 to 1000 nM; against JAK2, 100 to 1000 nM.
`CCC(CC)n1cc(-c2nc(-c3cnn(C[C@H](O)C(C)(C)O)c3)cn3nccc23)cn1` [Example 56, (S)-3-methyl-1-(4-(4-(1-(pentan-3-yl)-1H-pyrazol-4-yl)pyrazolo[1,5-a]pyrazin-6-yl)-1H-pyrazol-1-yl)butane-2,3-diol]: the IC50 was 10 to 100 nM at Human Tyk2 kinase domain, 1000 to 10000 nM on JAK3, 1000 to 10000 nM against JAK1 and 10 to 100 nM on JAK2.
As for `CCC(CC)n1cc(-c2nc(-c3cnn(C[C@@H](O)C(C)(C)O)c3)cn3nccc23)cn1` [Example 57, (R)-3-methyl-1-(4-(4-(1-(pentan-3-yl)-1H-pyrazol-4-yl)pyrazolo[1,5-a]pyrazin-6-yl)-1H-pyrazol-1-yl)butane-2,3-diol], the IC50 against Human Tyk2 kinase domain fell in the range of 10 to 100 nM; at JAK3, 1000 to 10000 nM; against JAK1 it was 100 to 1000 nM; at JAK2, 10 to 100 nM.
For `CCC(CC)n1cc(-c2nc(-c3cnn(CC(O)CO)c3)cn3nccc23)cn1` (stereo not drawn) [Example 58, 3-(4-(4-(1-(pentan-3-yl)-1H-pyrazol-4-yl)pyrazolo[1,5-a]pyrazin-6-yl)-1H-pyrazol-1-yl)propane-1,2-diol], the IC50 is 10 to 100 nM on Human Tyk2 kinase domain, 1000 to 10000 nM against JAK3, 100 to 1000 nM on JAK1 (setting [1]) and 10 to 100 nM against JAK2.
In the case of `CCC(CC)n1cc(-c2nc(-c3cnn(C[C@@H](O)[C@@H](C)O)c3)cn3nccc23)cn1` [Example 59, (2R,3R)-1-(4-(4-(1-(pentan-3-yl)-1H-pyrazol-4-yl)pyrazolo[1,5-a]pyrazin-6-yl)-1H-pyrazol-l-yl)butane-2,3-diol], the IC50 lay in the range of 10 to 100 nM at Human Tyk2 kinase domain, 1000 to 10000 nM on JAK3, 100 to 1000 nM on JAK1 (setting [1]) and 10 to 100 nM against JAK2.
As for `CCC(CC)n1cc(-c2nc(-c3cnn(CC(C)(O)CO)c3)cn3nccc23)cn1` (stereo not drawn) [Example 60, 2-methyl-3-(4-(4-(1-(pentan-3-yl)-1H-pyrazol-4-yl)pyrazolo[1,5-a]pyrazin-6-yl)-1H-pyrazol-1-yl)propane-1,2-diol], the IC50 against Human Tyk2 kinase domain fell in the range of 10 to 100 nM; at JAK3 it was 1000 to 10000 nM; against JAK1, 1000 to 10000 nM; against JAK2, 10 to 100 nM.
As for `CCC(CC)n1cc(-c2nc(-c3cnn(CC[C@H](O)CO)c3)cn3nccc23)cn1` [Example 62, (S)-4-(4-(4-(1-(pentan-3-yl)-1H-pyrazol-4-yl)pyrazolo[1,5-a]pyrazin-6-yl)-1H-pyrazol-1-yl)butane-1,2-diol], the IC50 lay within 10 to 100 nM against Human Tyk2 kinase domain, 1000 to 10000 nM against JAK3, 100 to 1000 nM against JAK1 (setting [1]) and 10 to 100 nM against JAK2.
For `CCC(CC)n1cc(-c2nc(-c3cnn(CC(O)CCO)c3)cn3nccc23)cn1` (stereo not drawn) [Example 63, 4-(4-(4-(1-(pentan-3-yl)-1H-pyrazol-4-yl)pyrazolo[1,5-a]pyrazin-6-yl)-1H-pyrazol-1-yl)butane-1,3-diol], the concentration for half-maximal inhibition (IC50) against Human Tyk2 kinase domain was 10 to 100 nM; on JAK3, 1000 to 10000 nM; against JAK1, 100 to 1000 nM; on JAK2, 10 to 100 nM.
